The text below walks through data of patent US11925611B2, “Use of ZT-1A and analogs thereof to prevent and/or treat neurodegenerative and neurocognitive disorders” (United States Government as Represented by the Department …, priority 2021, dated 2024).

Like-named read-outs stand apart in the source and are kept apart here.

Type in all cases: cell-based
One assay deals with NKCC1. As to the kind of experiment: Cellular inhibition of NKCC1 phosphorylation (pThr203). The note with it: n = 3, — = no inhibition. From the text: (§1) 8. Cellular Activity Profile of Inhibitors with the Salicyclic Amide
(§2) A list of the compounds evaluated for their ability to inhibit phosphorylation of SPAK/NKCC1/KCC3 activity is illustrated in Table 1 below.

Another assay deals with KCC3. As to the kind of experiment: Cellular inhibition of KCC3 phosphorylation (pThr991, pThr1048). Conditions: Isotonic conditions; n = 3; — = no inhibition; read-out: KCC3 pThr1048 (μM) Iso.
Excerpt: as §1, §2

In another assay the target is SPAK (Homo sapiens, UniProt Q9UEW8). Put plainly: Cellular inhibition of SPAK phosphorylation (pSer373). Conditions: 50% inhibition of phosphorylation, n = 3, — = no inhibition.
Excerpt: as §1, §2

[1] abbreviates: Hypotonic conditions, read-out: NKCC1 pThr203 (μM) hypo.
Setting [2] is: Isotonic conditions, read-out: NKCC1 pThr203 (μM) Iso.
The mark [3] stands for this setting: Hypotonic conditions, read-out: SPAK pSer373 (μM) hypo.
Setting [4] is: Isotonic conditions, read-out: SPAK pSer373 (μM) Iso.

Regarding `Cc1cc(C(C#N)c2ccc(Cl)cc2)c(Cl)cc1NC(=O)c1ccccc1O` (stereo not drawn) [1b], the IC50 in the assay with NKCC1 (setting [1]) was determined as 1 µM; in the assay with NKCC1 (setting [2]) it was 3 µM; in the assay with KCC3, 3 µM; on SPAK (setting [3]) it was 3 µM; on SPAK (setting [4]), 3 µM.

Consider `Cc1cc(C(C#N)c2ccc(Cl)cc2)c(Cl)cc1NC(=O)c1ccccc1S` (stereo not drawn) [1c (ZT-05-037-01)], for which the IC50 in the assay with NKCC1 (setting [1]) turned out to be 3 µM; in the assay with NKCC1 (setting [2]), 1 µM; with KCC3, 3 µM; on SPAK (setting [3]) it was 3 µM; at SPAK (setting [4]), 3 µM.

Consider `Cc1cc(C(C#N)c2ccc(Cl)cc2)c(Cl)cc1NC(=O)c1ccccc1N` (stereo not drawn) [1d(ZT-06-022-01)], for which the IC50 in the assay with NKCC1 (setting [1]) stood at 3 µM; with NKCC1 (setting [2]), 1 µM; with KCC3, 3 µM; at SPAK (setting [3]), 3 µM; on SPAK (setting [4]), 3 µM.

For the compound `Cc1cc(C(C#N)c2ccc(Cl)cc2)c(Cl)cc1NC(=O)c1cc(Cl)cc(Cl)c1O` (stereo not drawn) [1f], the IC50 worked out at 3 µM in the assay with NKCC1 (setting [1]); 1 µM in the assay with NKCC1 (setting [2]); 3 µM with KCC3; 3 µM at SPAK (setting [3]); 3 µM at SPAK (setting [4]).

Consider `Cc1cc(C(C#N)c2ccc(Cl)cc2)c(Cl)cc1NC(=O)c1cc(F)ccc1O` (stereo not drawn) [1g(ZT-06-055-01)], for which the IC50 in the assay on NKCC1 (setting [1]) came out at 3 µM; in the assay with NKCC1 (setting [2]), 1 µM; in the assay with KCC3, 3 µM; at SPAK (setting [3]), 3 µM; on SPAK (setting [4]), 3 µM.

Turning to `Cc1cc(C(C#N)c2ccc(Cl)cc2)c(Cl)cc1NC(=O)c1cccc(F)c1O` (stereo not drawn) [1h(ZT-06-039-01)], the IC50 in the assay on NKCC1 (setting [1]) came out at 3 µM; in the assay on NKCC1 (setting [2]), 1 µM; in the assay with KCC3, 3 µM; at SPAK (setting [3]), 3 µM; at SPAK (setting [4]), 3 µM.
